From patent publication US5654427A, “Indolocarbazole derivatives to treat a pathological condition of the prostate” (Kyowa Hakko Kogyo Co., Ltd., priority 1995, dated 1997)

Columns and labels:
[1] = system: androgen independent human prostate cancer cell lines Tsu-Pr1, DuPro-1, PC-3 and DU-145; test: growth inhibition of prostate cancer-derived cell lines, overall (calcein fluorescence); type: cell-based; settings: Table 3
Protocol: Throughout the experiment the Tsu-Pr1 and Du-Pro1 cells were maintained in RPMI 1640 medium (GIBCO) containing 10% fetal bovine serum (Hyclone), 2 mM glutamine, 100 U/ml penicillin, and 100 μg/ml streptomycin. The PC-3 cells were maintained in Ham's F12K medium (Irvine Scientific) containing 10% fetal bovine serum (Hyclone), 2 mM glutamine, 100 U/ml penicillin, and 100 μg/ml streptomycin. All cell lines were maintained at 37° C. in a humidified atmosphere containing 5% CO2. The DU-145 cells were maintained in minimal essential medium (Gibco), containing 10% fetal bovine serum (Hyclone), 2 mM glutamine, and no antibiotics.
Tests for growth inhibition by the candidate compounds were conducted by the following procedure. In each well of a 96-well plate (Falcon) were placed 2,500 cells in 0.1 ml of medium. The cultures were incubated overnight after which a 0.1 ml aliquot of culture medium was added to each well. […] Other control wells received medium without any K-252a derivative compounds. Incubation was continued for three days. On day three the number of cells in each well was measured using a calcein fluorescence assay (Bozyczko-Coyne et al. J. Neurosci. Meth. 50, 205-216 (1993)).
Calcein AM (Molecular Probes, Eugene, Oreg.), an analog of the viable dye fluorescein diacetate, is taken up by cells and cleaved intracellularly to fluorescent salts that are retained by intact membranes of viable cells. This method thus provides a reliable and quantitative measurement of cell survival. Calcein AM was diluted 2× in Dulbeccos phosphate buffered saline (D-PBS) to 2× the final assay concentration (6 μM) and 100 μl was added to culture wells containing 100 μl of medium. The plates were then incubated for 1 hour at 37° C. Cells were then washed 4 times with D-PBS to remove excess calcein not taken up by cells. The plate was read using a Millipore plate reading fluorimeter (Cytofluor 2350) at emission=485 nm and excitation=538 nm. After subtraction of blank values (wells containing medium but no cells), relative fluorescent values reflect a quantitative measurement of cell survival. […]

prostate glands = test: inhibition of prostate growth in sexually immature mice (weight of prostate glands); type: in vivo; settings: for Ventral Prostate weight / Dorsal Prostate weight / Coagulat-ing Glands weight / Seminal Vesicles weight: Table 6; for Ventral Prostate weight: TEPBS 14.0 ± 0.8; for Dorsal Prostate weight: TEPBS 14.6 ± 1.4; for Coagulat-ing Glands weight: TEPBS 29.6 ± 2.0; for Seminal Vesicles weight: TEPBS 71.4 ± 2.4
Excerpt: The following animal model can be used to test the efficacy of a functional derivative for treatment of a proliferative prostate condition. Sexually immature male mice of 15-20 g each (Charles River Laboratories, Raleigh, N.C.) were used in the following in vivo study. The mice were allowed at least 3 days after purchase to acclimate before being used in any experiments.
Each test group contained 12 mice. […] At the end of the 21 day dosing period the mice were sacrificed and whole body blood, dorsal prostate, ventral prostate, coagulating glands, seminal vesicles, heart, liver, stomach, lung, kidneys and testes were collected separately and weighed.

COC1(CO)CC2OC1(C)n1c3ccccc3c3c4c(c5c6ccccc6n2c5c31)C(=O)NC4 (centres unmarked) [Compound I-19]
potency in inhibiting prostate cell line growth, in words [1]: most potent compounds in inhibiting growth in all four cell lines
weights of ventral prostate, dorsal prostate, seminal vesicles, and coagulating glands, in words (prostate glands; 1 mg/kg): significantly reduced the weights of ventral prostate, dorsal prostate, seminal vesicles, and coagulating glands
weights of ventral prostate, dorsal prostate, seminal vesicles, and coagulating glands, in words (prostate glands; 10 mg/kg): significantly reduced the weights of ventral prostate, dorsal prostate, seminal vesicles, and coagulating glands
Ventral Prostate weight (prostate glands; 1 mg/kg): 11.0 ± 0.9 mg
Dorsal Prostate weight (prostate glands; 1 mg/kg): 10.4 ± 0.9 mg
Coagulat-ing Glands weight (prostate glands; 1 mg/kg): 24.6 ± 1.4 mg
Seminal Vesicles weight (prostate glands; 1 mg/kg): 60.0 ± 2.2 mg
Ventral Prostate weight (prostate glands; 10 mg/kg): 10.5 ± 0.6 mg
Dorsal Prostate weight (prostate glands; 10 mg/kg): 7.2 ± 0.8 mg
Coagulat-ing Glands weight (prostate glands; 10 mg/kg): 23.6 ± 0.8 mg
Seminal Vesicles weight (prostate glands; 10 mg/kg): 52.0 ± 2.0 mg
